Reference: article PMC10180076, “Novel Biologically Active N-Substituted Benzimidazole Derived Schiff Bases: Design, Synthesis, and Biological Evaluation” (Molecules, 2023)
Values after ≈ are worked out from the molar mass of the structure shown.

What was measured:
NCI-H460, lung carcinoma = assay: Proliferation assay (MTS, 72 h), NCI-H460; format: cell-based, human; details: Homo sapiens, NCI-H460
Description: (§1) Human cancer cells used in this manuscript, namely Capan-1, HCT-116, NCI-H460, LN-229, HL-60, K-562, and Z-138, were acquired from the American Type Culture Collection (ATCC, Manassas, VA, USA), while the DND-41 cell line was purchased from the Deutsche Sammlung von Mikroorganismen und Zellkulturen (DSMZ Leibniz-Institut, Braunschweig, Germany). Culture media were purchased from Gibco Life Technologies, Merelbeke, Belgium, and supplemented with 10% fetal bovine serum (HyClone, Cytiva, Marlborough, MA, USA). Vincristine and docetaxel, which were used as the reference inhibitors, were purchased from Selleckchem (Munich, Germany). Stock solutions were prepared in DMSO.
(§2) Adherent cell lines LN-229, HCT-116, and NCI-H460 and Capan-1 cells were seeded at a density between 500 and 1500 cells per well, in 384-well tissue culture plates (Greiner, Kremsmünster, Austria). After overnight incubation, the cells were treated with seven different concentrations of the test compounds, ranging from 100 to 0.006 µM.
(§3) Suspension cell lines HL-60, K-562, Z-138, and DND-41 were seeded at densities ranging from 2500 to 5500 cells per well in 384-well culture plates containing the test compounds at the same concentration points. The cells were incubated for 72 h with the compounds and were then analyzed using the CellTiter 96® AQueous One Solution Cell Proliferation Assay (MTS) reagent (Promega, Madison, WI, USA) according to the manufacturer’s instructions. […] The compounds were tested in two independent experiments.

[1] = tested on: influenza A/H1N1 (A/Ned/378/05); assay: Antiviral CPE reduction assay, influenza A/H1N1 in MDCK; format: cell-based; details: Influenza A virus, MDCK cells, 100 CCID50, MTS
[2] = tested on: K-562, chronic myeloid leukemia; assay: Proliferation assay (MTS, 72 h), K-562; format: cell-based, human; details: Homo sapiens, K562
Description: as §1, §2, §3

[3] = tested on: influenza A/H3N2 (A/HK/7/87); assay: Antiviral CPE reduction assay, influenza A/H3N2 in MDCK; format: cell-based; details: Influenza A virus, MDCK cells, 100 CCID50, MTS
in vitro [4] = details: human
in vitro [5] = details: dog
[6] = tested on: DND-41, acute lymphoblastic leukemia; assay: Proliferation assay (MTS, 72 h), DND-41; format: cell-based, human; details: Homo sapiens, DND41
Description: as §1, §2, §3

sindbis virus = assay: Antiviral CPE reduction assay, Sindbis virus in Huh-7; format: cell-based; details: Huh-7 cells, 100 CCID50, MTS
Zika virus (Mr776) = assay: Antiviral CPE reduction assay, Zika virus in Huh-7; format: cell-based; details: Huh-7 cells, 100 CCID50, MTS
[7] = tested on: HL-60, acute myeloid leukemia; assay: Proliferation assay (MTS, 72 h), HL-60; format: cell-based, human; details: Homo sapiens, HL-60
Description: as §1, §2, §3

LN-229, glioblastoma = assay: Proliferation assay (MTS, 72 h), LN-229; format: cell-based, human; details: Homo sapiens, LN-229
Description: as §1, §2, §3

[8] = tested on: human coronavirus HCoV-NL63; assay: Antiviral CPE reduction assay, HCoV-NL63 in Huh-7; format: cell-based; details: Huh-7 cells, 100 CCID50, MTS
[9] = tested on: human coronavirus HCoV-OC43; assay: microbe, parasite or virus in culture; format: cell-based; details: Betacoronavirus 1, OC43; HEL 299 cells, 100 CCID50, MTS; read-out: Antiviral Activity (EC50/μM) HCoV OC43 HEL 299
[10] = tested on: yellow fever virus (YFV 17D); assay: microbe, parasite or virus in culture; format: cell-based; details: Huh-7, read-out: Antiviral Activity (EC50/μM) YFV 17D Huh-7
[11] = tested on: Capan-1, pancreatic adenocarcinoma; assay: Proliferation assay (MTS, 72 h), Capan-1; format: cell-based, human; details: Homo sapiens, CAPAN-1
Description: as §1, §2, §3

in vitro [12] = details: human; remark: listed apart in the source
[13] = tested on: herpes simplex virus-1 (HSV-1 KOS); assay: Antiviral CPE reduction assay, HSV-1 KOS in HEL 299; format: cell-based; details: Human alphaherpesvirus 1; HEL 299 cells, 100 CCID50, MTS
[14] = tested on: respiratory syncytial virus A (Long); assay: Antiviral CPE reduction assay, RSV A in HEL 299; format: cell-based; details: human respiratory syncytial virus; HEL 299 cells, 100 CCID50, MTS
[15] = tested on: HCT-116, colorectal carcinoma; assay: Proliferation assay (MTS, 72 h), HCT-116; format: cell-based, human; details: Homo sapiens, HCT-116
Description: as §1, §2, §3

[16] = tested on: influenza B (B/Ned/537/05); assay: Antiviral CPE reduction assay, influenza B in MDCK; format: cell-based; details: Influenza B virus; MDCK cells, 100 CCID50, MTS
[17] = tested on: Z-138, non-Hodgkin lymphoma; assay: Proliferation assay (MTS, 72 h), Z-138; format: cell-based, human; details: Homo sapiens, Z-138
Description: as §1, §2, §3

[18] = tested on: human coronavirus HCoV-229E; assay: organism not typed; format: cell-based; details: HEL 299 cells, 100 CCID50, MTS; read-out: Antiviral Activity (EC50/μM) HCoV 229E HEL 299
E. faecalis ATCC 29212 = assay: Broth microdilution MIC, E. faecalis; format: cell-based; details: Enterococcus faecalis, ATCC29212; read-out: MIC against E. faecalis
Procedure: (§4) Selected bacterial strains were Gram-negative E. coli, K. pneumoniae, A. baumannii and P. aeruginosa and Gram-positive S. aureus, S. pneumoniae, and E. faecalis. The synthesized compounds were prepared as 10 mM DMSO solutions and tested in a final concentration range of 0.2–100 µM [39].
(§5) Broth microdilution testing was performed according to CLSI (Clinical Laboratory Standards Institute) guidelines. The MIC (minimal inhibitory concentration) value was defined as the last tested concentration of the compound at which there was no visible growth of bacteria. Inoculums for each microorganism were prepared using the direct colony suspension method, where broth solutions that achieved turbidity equivalent to 0.5 McFarland standard were additionally diluted 100× with Ca adjusted MH media (Becton Dickinson, Franklin Lakes, NJ, USA). All of the test plates were incubated for 16–24 h at 37 °C.
(§6) Methods for dilution of antimicrobial susceptibility tests for bacteria that grow aerobically followed M07, 11th edition, 2018, and Clinical and Laboratory Standards Institute (CLSI) guidelines. Performance standards for antimicrobial susceptibility testing followed the M100, 28th edition, 2018.

E. coli efflux del = assay: microbe, parasite or virus in culture; format: cell-based; details: Table 2 prints no unit; μM for compounds; antibiotics tested at 0.125–64 µg/mL
Procedure: as §4, §5, §6

| Compound | IC50 (NCI-H460, lung carcinoma) [µM] | EC50 [1] [µM] | IC50 [2] [µM] | EC50 [3] [µM] | CC50 (in vitro [4]) [µM] | CC50 (in vitro [5]) [µM] | IC50 [6] [µM] | EC50 (sindbis virus) [µM] | EC50 (Zika virus (Mr776)) [µM] | IC50 [7] [µM] | IC50 (LN-229, glioblastoma) [µM] | EC50 [8] [µM] | EC50 [9] [µM] | EC50 [10] [µM] | IC50 [11] [µM] | CC50 (in vitro [12]) [µM] | EC50 [13] [µM] | EC50 [14] [µM] | IC50 [15] [µM] | EC50 [16] [µM] | further results |
| --- | --- | --- | --- | --- | --- | --- | --- | --- | --- | --- | --- | --- | --- | --- | --- | --- | --- | --- | --- | --- | --- |
| CC(C)Cn1c(/N=C/c2ccc(N(C)C)cc2)nc2ccc(C#N)cc21 [Compound 29, (E)-2-((4-(Dimethylamino)benzylidene)amino)-1-isobutyl-1H-benzo[d]imidazole-6-carbonitrile] | > 100 | 94.1 | > 100 | > 100 | > 100 | > 100 | > 100 | > 100 | > 100 | 42.8 | > 100 | 79.8 | > 100 | > 100 | > 100 | > 100 | > 100 | > 100 | > 100 | > 100 | melting point: 283 to 285 °C; IC50 [17]: > 100 µM; EC50 [18]: > 100 µM |
| CC(C)Cn1c(/N=C/c2ccc([N+](=O)[O-])cc2)nc2ccc(C#N)cc21 [Compound 32, (E)-1-Isobutyl-2-((4-nitrobenzylidene)amino)-1H-benzo[d]imidazole-6-carbonitrile] | > 100 | > 100 | > 100 | > 100 | > 100 | > 100 | > 100 | > 100 | > 100 | > 100 | > 100 | > 100 | 68.7 | > 100 | > 100 | 90.1 | > 100 | > 100 | > 100 | > 100 | melting point: 277 to 279 °C; IC50 [17]: > 100 µM; EC50 [18]: 38.5 µM |
| CN(C)c1ccc(/C=N/c2nc3ccc(C#N)cc3n2C)cc1 [Compound 34, (E)-2-((4-(Dimethylamino)benzylidene)amino)-1-methyl-1H-benzo[d]imidazole-6-carbonitrile] | > 100 | > 100 | > 100 | > 100 | > 100 | > 100 | > 100 | > 100 | > 100 | > 100 | > 100 | 82.8 | > 100 | > 100 | > 100 | > 100 | > 100 | > 100 | > 100 | 83.5 | IC50 [17]: > 100 µM; EC50 [18]: > 100 µM |
| CCN(CC)c1ccc(/C=N/c2nc3ccc(C#N)cc3n2C)c(O)c1 [Compound 36, (E)-2-((4-(Diethylamino)-2-hydroxybenzylidene)amino)-1-methyl-1H-benzo[d]imidazole-6-carbonitrile] | > 100 | > 100 | > 100 | > 100 | > 100 | > 100 | 41.4 | > 100 | > 100 | > 100 | > 100 | > 100 | > 100 | > 100 | > 100 | > 100 | > 100 | > 100 | > 100 | > 100 | IC50 [17]: > 100 µM; EC50 [18]: 88.4 µM |
| CN(C)c1ccc(/C=N/c2nc3ccccc3n2-c2ccccc2)cc1 [Compound 38, (E)-N,N-Dimethyl-4-(((1-phenyl-1H-benzo[d]imidazol-2-yl)imino)methyl)aniline] | > 100 | > 100 | > 100 | > 100 | > 100 | > 100 | > 100 | > 100 | > 100 | > 100 | > 100 | > 100 | 94.8 | > 100 | > 100 | > 100 | > 100 | > 100 | > 100 | > 100 | MIC (E. faecalis ATCC 29212): 32 µM (≈ 10.9 µg/mL); MIC E. coli efflux del (E. coli efflux del): >64; melting point: 204 to 207 °C; IC50 [17]: > 100 µM; EC50 [18]: > 100 µM |
| C[C@@H](O)[C@H]1C(=O)N2C(C(=O)O)=C(S[C@@H]3CN[C@H](C(=O)N(C)C)C3)[C@H](C)[C@H]12 [Meropenem, meropenem, reference compound] |  |  |  |  |  |  |  |  |  |  |  |  |  |  |  |  |  |  |  |  | MIC E. coli efflux del (E. coli efflux del): 8 |
